Assay results: publication PMC3158126, “Characterization of antigenic variants of hepatitis C virus in immune evasion” (Virology Journal, 2011)

Assays:
[1] = test system: PBMC from a HCV-infected patient B3019; assay: T-cell proliferation (tritiated thymidine incorporation) with single wild type and variant peptides; format: cell-based, human; conditions: flow cytometry analysis of cells stimulated by wild type peptide
[2] = test system: CD4+ cells from PBMC of HLA-DRB1*15-positive healthy individuals; assay: Intracellular cytokine staining and flow cytometry of purified CD4+ cells (Treg phenotypes), HCV- healthy subjects; format: cell-based, human; conditions: median (range), n = 3 HLA-DRB1*15+ healthy subjects; NS3_358-375 5 μM or variant pool 1 μM each peptide, 66 hours
Protocol: (§1) PBMCs were re-suspended at a concentration of 1 × 10^6 /ml in RPMI 1640 tissue culture medium as mentioned above in the description of the proliferation assay. 1 ml aliquots of PBMC were added to a 24-well tissue culture plate containing each wild type NS3_358-375 or variant pool, and medium alone. The concentrations of peptides are 5 μM for NS3_358-375 and 1 μM for each of variant peptides. After culturing for 66 hours, the PBMCs were treated with anti-human CD4 antibodies and magnetic micro-beads (Miltenyi Biotec, Auburn, CA) for positive selection of CD4 cells using a Magnetic Cell Separator (MACS, Miltenyi Biotec). The purity of CD4^+ cells obtained was 99.3% determined by Flow Cytometry.
(§2) The purified CD4^+ cells were treated with 0.5 ml of fix/permeabilizing solution (BD Pharmingen) for 10 minutes. After washing, the appropriate volume of specific fluorescent-labeled anti-CD25-ECD, anti-IFN-γ-FITC, anti-IL-10-PE, anti-TGF-β1-biotin and streptavidin-CyChrome were added to each of the tubes. One additional tube of CD4^+ cells were incubated with Foxp3-FITC, CD152 (CTLA-4)-PE and CD25-ECD. A tube of pooled CD4^+ cells from each culture was stained with isotype antibodies equivalent to each of the antibodies described above. In addition, four tubes of pooled CD4^+ cells were stained with each of the above antibodies alone as single-color controls which is necessary for color compensation. All tubes were incubated for 30 minutes in dark at room temperature. After washing, cells were re-suspended in 300 μl of wash buffer (BD Pharmingen), and a four color or three-color flow cytometry assay was performed within 24 hours at the Flow Cytometry Service Laboratory of the University of Illinois at Chicago. A total 1 × 10^5 cells were counted to determine the ratio of CD25^+, CD25^- and cytokine producing cells of each CD4^+ population.
Supplementary file 1743-422X-8-377-S3.DOC: Additional file 3 Figure S2. CD4+CD25+ and CD4+CD25- Tregs of a HCV- healthy individual. Experiments, controls, and data analysis were the same as described in Figure 4. A: Percentages of CD25+ and CD25- gated CD4+ cells. B: Percentages of CD25+ Th3 and Tr1 cells. C: Percentages of CD25- Th3 and Tr1 cells. A single representative of three experiments is shown. Click here for file

[3] = test system: CD4+ cells from PBMC of HLA-DRB1*15-positive HCV-infected patients; assay: Intracellular cytokine staining and flow cytometry of purified CD4+ cells (Treg phenotypes), HCV+ patients; format: cell-based, human
Protocol: as §1, §2
Figure 3 Treg phenotypes induced by peptide NS3_358-375 and variant pools VP1 and VP2. Cell culture adn purification of CD4^+ cells and controls were the same as described in Figure 2. Intracellular staining and four-color flow cytometry using fluorescent-labeled antibodies to human CD25, IFN-γ, TGF-β and IL-10 were performed with purified CD4^+ cells. A pool from each test was used as an isotype control. A: Percentages of CD25^+ gated CD4^+ cells. […] B: Percentages of Th3 and Tr1 cells. Note that 58~67% of the CD25^+ cells were TGF-β^+ (sum of the upper two quadrants). A majority of the CD25^+IL-10^+ cells were also TGF-β^+ (the upper right quadrant). C: Percentages of CD25^- gated CD4^+ cells. D: Percentages of Th3 and Tr1 cells. […] Two representatives of eight experiments are shown. […]

HLA-DRB1*1501 molecules = HLA-DRB1*1501 molecules (Homo sapiens, UniProt P01903+P01911); conditions: cited from earlier work
From the text: Our previous studies identified a CD4 epitope derived from the NS3 protein of HCV, NS3_358-375 [38]. […] Antigenic variants of the Th1 epitope were identified by RT-PCR, cloning and sequencing. Peptides of wild type NS3_358-375 and its variants (single or double amino acid substitutions) were synthesized and used in the current study (Table 1).

[4] = test system: CD4+ T cells of HCV-infected patient; assay: Foxp3 and CTLA-4 (CD152) expression on CD4+CD25+ and CD4+CD25- cells, flow cytometry; format: cell-based, human
Protocol: as §2
Figure 4 Characteristics of antigen-driven CD25^+ and CD25^- Tregs. Cellular culture and separation of CD4^+ T cells and controls were the same as described in Figure 2. The purified CD4^+ cells were stained with fluorescent-labeled antibodies for human CD25, CTLA-4 and Foxp3 followed by a flow cytometry assay. The effect of peptide NS3_358-375 and variant pools VP1 and VP2 on expression of Foxp3 (A) and CTLA-4 (B) on CD4^+CD25^- (blue) and CD4^+CD25^+ (red) T cells is shown. Median values for each population are shown in the boxes. One representative of two experiments is shown. […]

[5] = cells obtained at about 1.5 years of HCV infection, Figure S3
[6] = median (range), n = 6 HLA-DRB1*15+ HCV+ patients, NS3_358-375 5 μM or variant pool 1 μM each peptide, 66 hours

Sequence: VIKGGRHLIFCHSKKKCD [NS3_358-375]
- proportion of peripheral proliferating cells that were CD4+ [1]: greater than 95%
- CD25+ of CD4+ cells, HCV- subjects [2]: 10.1 (10 - 14) %
- IL-10+ of CD4+CD25+ cells, HCV- subjects [2]: 2.95 (2.6 - 3.2) %
- TGFβ+ IL-10+ of CD4+CD25+ cells, HCV- subjects [2]: 0.67 (0.5 - 2.5) %
- TGFβ+ of CD4+CD25+ cells, HCV- subjects [2]: 5.04 (2.0 - 8.5) %
- ratio of CD4+CD25+ cells (CD25+ gated CD4+ cells) ([3]; Figure 3A, representative experiment, NS3_358-375 5 μM, pools 1 μM each peptide, listed as wild-type peptide): 26.0%
- percentage of CD25-TGF-β+ cells among CD4+CD25- cells ([3]; Figure 3D, text value (upper two quadrants)): 12.7%
- CD25-IL-10+ Tr1 cells ([3]; PBMCs from another DRB1*15+ patient infected with HCV over 20 years, Figure S4): 25%
- CD25+ IL-10-secreting Tr1 cells [3, 5]: 2.9%
- CD25- IL-10-secreting Tr1 cells [3, 5]: 7.6%
- CD25+ of CD4+ cells, HCV+ patients [3, 6]: 21.6 (18 - 27) %
- IL-10+ of CD4+CD25+ cells, HCV+ patients [3, 6]: 6.51 (3.0 - 11) %
- TGFβ+ IL-10+ of CD4+CD25+ cells, HCV+ patients [3, 6]: 7.85 (5.0 - 12) %
- TGFβ+ of CD4+CD25+ cells, HCV+ patients [3, 6]: 55.4 (37 - 59) %
- binding to HLA-DRB1*1501 (HLA-DRB1*1501 molecules): binds to HLA-DRB1*1501 well
- expression of Foxp3 and CTLA-4 compared to cells cultured with medium alone ([4]; CD25+ cells): down-regulated
- Foxp3 level in CD4+CD25+ cells (median value) ([4]; Figure 4A, one representative of two experiments): 77.8
- CTLA-4 (CD152) level on CD4+CD25+ cells (median value) ([4]; Figure 4B, one representative of two experiments): 38.4
